In patent US20050014742A1, “Use of inhibitors of the y2 receptor of neuropeptide y in the treatment of alcoholism” (priority 2001, published 2005):
“Also recorded” adds a separate entry of the source.

How the values were obtained:
Format in all cases: in vivo, rat
Wistar rats = assay: Exploratory locomotor activity after intracerebroventricular administration; conditions: for Horizontal locomotor activity / Vertical locomotor activity (rearings): 30 min test period, n=6, mean ± SEM
Male Wistar rats = assay: Operant ethanol self-administration after intracerebroventricular injection
Method: Male Wistar rats (Charles River, Hamburg, Germany), appr. 225 g at start of experiment were used for the experiments from which data are presented. For a replication experiment (see Results), Wistar males of the same age but delivered by Mollegard, Ry, Denmark, were used. Subjects were housed on a reversed light-cycle (lights off 11 am, on 11 pm). Following training for operant responding (see below), surgery was carried out for unilateral cannula implantation. Rats were anaesthetized with ketaminelxylazine (80 mg/kg and 15 mg/kg) and placed in a stereotaxic apparatus (Kopf). Stainless steel guide cannulas (23 gauge, PlasticOne, Roanoke, Va.) aimed at the lateral ventricle were implanted and secured to the skull with stainless screws and dental cement. Final injection coordinates were: A=−0.8, L=±1.4, V=−4.3 from Bregma (15). Animals were allowed to recover for one week, during which time they were only repeatedly handled, in order to reduce the stress of subsequent intracerebroventricular injections. They were then reintroduced to the operant task (see below), and allowed to re-establish their rates of operant responding for two weeks. Finally, the actual Latin-square design was initiated, and carried out over the course of three weeks.
BIIE0246 ([…]; kind gift of Boehringer Ingelheim) or saline was injected i.c.v. via an injection cannula (28-gauge) connected to a 10 μl Hamilton syringe with a low-volume plastic tubing. […] The drug was dissolved in 0.9% NaCl and injected 45 min prior to onset of sessions, in a volume of 10 μl over a period of 2 min interval. The injection cannula was left in place for an additional minute to prevent back flow.
Following completion of training, rats were subjected to surgery, allowed to recover for one week and to stabilize their baseline responding for two weeks, after which a Latin Square design was initiated and carried out over three weeks. During each of these weeks, rats were run Monday-Friday, and drug administration was on Friday. […] In order to retain a balanced design, the analysis presented here includes only those subjects, which completed all treatments. An analysis based on all subjects, with missing values for failed injections, produced a virtually identical result.

rats = assay: Preliminary dose-finding experiments (sedation); conditions: dose of 3 nmol i.c.v.
Method: […] […] The drug was dissolved in 0.9% NaCl and injected 45 min prior to onset of sessions, in a volume of 10 μl over a period of 2 min interval. The injection cannula was left in place for an additional minute to prevent back flow.

[1] = Wistar rats from Mollegard, separate experiment (data not shown)

## N=C(N)NCCC[C@H](NC(=O)CC1(CC(=O)N2CCN(C3c4ccccc4NC(=O)c4ccccc43)CC2)CCCC1)C(=O)NCCn1c(=O)n(-c2ccccc2)n(-c2ccccc2)c1=O (stereo partly drawn) [BIIE0246, (S)—N^2-//1-/2-/4-/(R,S)-5,11-Dihydro-6(6H)-oxodibenz/b,elazepin-11-yl/-1-piperazinyl/-2-oxoethyl/-cyclopentyl/acetyl/-N-/2-/1,2-dihydro-3,5(4H)-dioxo-1,2-diphenyl-3H-1,2,4-triazol-4-yl/-ethyl/-argininamide]
Wistar rats; 0.3 nmol i.c.v.
  Horizontal locomotor activity: 2873.8 ± 572.0
  Vertical locomotor activity (rearings): 756.8 ± 122.9
Wistar rats; 1.0 nmol i.c.v.
  Horizontal locomotor activity: 2630.2 ± 480.0
  Vertical locomotor activity (rearings): 503.3 ± 113.4
Wistar rats; i.c.v., 0.3 and 1.0 nmol, n=6, p=0.74 horizontal, p=0.17 vertical
  Effect of treatment on horizontal and vertical locomotor activity: Neither horisontal (n=6; F[2,15]=0.3; p=0.74) nor vertical activity (F[2,15]=2.0; p=0.17) was affected
Male Wistar rats; 1.0 nmol i.c.v., 30 min session, vs saline, Tukey HSD p<0.001
  Ethanol-reinforced responses over time (cumulative, 5 min intervals): present during min 10-30; also recorded: significantly less during the last 20 but not during the initial 10 min
Male Wistar rats; 1.0 nmol i.c.v., 45 min before 30 min session, Wistar rats (Charles River), p<0.05 vs saline and vs 0.3 nmol
  Reduction of total responding for ethanol: ~40%
Male Wistar rats; 1.0 nmol i.c.v., n=13, p=0.013 (FIG. 1A)
  Responding for ethanol: significantly reduced
Male Wistar rats; [1]
  Effect on saccharin solution, replication experiment: no effect
  Suppression of responding for ethanol, replication experiment: 40%
Male Wistar rats; i.c.v., 0, 0.3 and 1.0 nmol, one way ANOVA, n=13, p=0.013
  Total responding for ethanol (overall treatment effect): significantly reduced
Male Wistar rats; i.c.v., 0.3 and 1.0 nmol, p=0.25, Charles River Wistar rats
  Responding for saccharin: unaffected
rats
  Sedative effect: marked sedative effects
